Values after ≈ are worked out from the molar mass of the structure shown. Values joined by “and” are separate entries in the source; they are usually repeats but may differ in a detail not shown here. Equal values may be shown once. Read-outs that look alike come from different tables or passages of the source.

Here are results for six compounds from US4812465A, “Triazole derivatives for use as antimycotic agents” (CL Pharma Aktiengesellschaft, priority 1986, dated 1989).

What all share (test): In vitro determination of minimum inhibitory concentration (MIC), serial dilution
Assay type in all cases: cell-based

In one data set the test system is Absidia ramosa. Particulars: pH 6.0, 22° C., 14 days; for MIC: Lichtheimia ramosa, 336 h, pH 6, Absidia ramosa; for MIC Abs.ra.: Absidia ramosa. How it is done:
(§1) The antimycotic activities of the compounds were measured by in vitro determination of the minimum inhibitory concentration (MIC) for yeasts, molds and dermatophytes.
(§2) 6 dermatophytes, 2 yeasts and 4 molds were used for testing with fungi, as follows:
(§3) The minimum inhibitory concentration (MIC) was determined in serial dilution tests in test tubes. The volume of the liquid nutrient medium in each test tube was 4.5 ml.
(§4) The substances were dissolved in DMSO and diluted with sterile distilled water to 10 concentrations (100, 50, 25, 12.5, 6.25, 3.12, 1.56, 0.78, 0.39 and 0.19 μg/ml). 0.5 ml of each of these dilution steps was added to liquid nutrient medium. Thus, a constant concentration of solvent in all the nutrient media was ensured, irrespective of the active compound concentration.
(§5) A comparison solution which contained only the solvent in appropriate concentration was included when carrying out each of the tests.
(§6) The individual strains were maintained on Sabouraud/beerwort agar slants and, before they were used in a test, they underwent a passage on a modified Sabouraud liquid nutrient medium. The strains were then harvested, washed and converted into a suspension of McFaerland 3 in the case of yeasts and molds and of McFaerland 4-5 in the case of dermatophytes.
(§7) The amount of material inoculated (inoculum) was 100 μl/test tube (inoculated densities: yeasts about 10^3 /ml, molds about 10^4 /ml, dermatophytes about 10^4 /ml). The pH of the liquid nutrient medium was 6.0. After inoculation had taken place the fungi were incubated at 22° C. for 14 days.
(§8) The MIC was then determined. The concentration step at which growth was no longer visible on macroscopic inspection was used for the determination of the MIC. The comparison substance used was 1-(2-(2,4-dichlorophenyl)-2-(2,4-dichlorophenylmethoxy)ethyl)-1H-imidazole(compound A).

The subject of the next data set is Aspergillus fumigatus. The procedure: as §1, §2, §3, §4, §5, §6, §7, §8
The test system of a further data set is Candida albicans. Particulars: for MIC: 336 h. How it is done: as §1, §2, §3, §4, §5, §6, §7, §8
The test system of the next data set is Candida tropicalis. The note with it: 336 h. How it is done: as §1, §2, §3, §4, §5, §6, §7, §8
The test system of a further data set is Epidermophyton floccosum. Particulars: pH 6.0, 22° C., 14 days; for MIC: 336 h, pH 6, Epidermophyton floccosum. How it is done:
as §1, §2, §3, §4, §5, §6, §7, §8

A further data set has as its system Microsporum canis. The note with it: pH 6.0, 22° C., 14 days; for MIC: 336 h, pH 6, Microsporum canis. How it is done: as §1, §2, §3, §4, §5, §6, §7, §8
For a further data set, the system named is Microsporum gypseum. Particulars: for MIC: Nannizzia gypsea, 336 h. How it is done:
as §1, §2, §3, §4, §5, §6, §7, §8

A further data set concerns Mucor mucedo minus. The note with it: pH 6.0, 22° C., 14 days; for MIC: Mucor mucedo, 336 h, pH 6, Mucor mucedo minus. How it is done: as §1, §2, §3, §4, §5, §6, §7, §8
The next data set has as its system Mucor mucedo plus. The note with it: pH 6.0, 22° C., 14 days; for MIC: Mucor mucedo, 336 h, pH 6, Mucor mucedo plus. The procedure:
as §1, §2, §3, §4, §5, §6, §7, §8

The test system of data set [1] is Trichophyton mentagrophytes. Particulars: pH 6.0, 22° C., 14 days; for MIC: 336 h, pH 6, Trichophyton mentagrophytes. How it is done:
as §1, §2, §3, §4, §5, §6, §7, §8

The subject of another data set is Trichophyton rubrum. The note with it: pH 6.0, 22° C., 14 days; for MIC: 336 h, pH 6, Trichophyton rubrum. The procedure: as §1, §2, §3, §4, §5, §6, §7, §8
Another data set relates to Trichophyton verrucosum. Particulars: pH 6.0, 22° C., 14 days; for MIC: 336 h, pH 6, Trichophyton verrucosum. The procedure: as §1, §2, §3, §4, §5, §6, §7, §8
Where [2] appears, read: pH 6, Candida albicans, pH 6.0, 22° C., 14 days, read-out: MIC C.alb.
[3] abbreviates: pH 6, Candida tropicalis, pH 6.0, 22° C., 14 days, read-out: MIC C.trop.
The mark [4] stands for this setting: pH 6, Microsporum gypseum, pH 6.0, 22° C., 14 days, read-out: MIC Mi.gyp.

As to `Clc1ccc(COC(Cn2ccnc2)c2ccc(Cl)cc2Cl)c(Cl)c1` (stereo not drawn) [A, 1-(2-(2,4-dichlorophenyl)-2-(2,4-dichlorophenylmethoxy)ethyl)-1H-imidazole, reference compound], the MIC (usually the lowest concentration that inhibits growth of the organism) stood at 12.5 mg/L (≈ 30 µM) against Absidia ramosa; 12.5 mg/L (≈ 30 µM) in the data set with Candida albicans (pH 6, read-out: MIC C.alb); 12.5 mg/L (≈ 30 µM) in the data set with Candida tropicalis (pH 6, read-out: MIC C.trop); 1.56 mg/L (≈ 3.75 µM) in the data set with Epidermophyton floccosum; 6.25 mg/L (≈ 15 µM) in the data set with Microsporum canis; 3.12 mg/L (≈ 7.5 µM) in the data set on Microsporum gypseum (pH 6, read-out: MIC Mi.gyp). The MIC in the data set with Mucor mucedo minus was determined as 12.5 mg/L (≈ 30 µM); with Mucor mucedo plus, 12.5 mg/L; in data set [1] it was 1.56 mg/L (≈ 3.75 µM); with Trichophyton rubrum it was 6.25 mg/L (≈ 15 µM); against Trichophyton verrucosum, 6.25 mg/L (≈ 15 µM). In addition, in the data set with Aspergillus fumigatus (Aspergillus fumigatus, pH 6.0, 22° C., 14 days), the “MIC Asp.fu.” value is on record as 3,12 μg/ml.

On to `Clc1ccc(C(Cn2ccnc2)NCCCSc2ccc(Br)cc2)c(Cl)c1` (stereo not drawn) [Compound 1, 1-(2-(2,4-Dichlorophenyl)-2-(3-(4-bromophenylthio)propylamino)ethyl)-1H-imidazole], for which, in the data set on Absidia ramosa, the “MIC Abs.ra.” value is recorded as 3,12 μg/ml. In addition, the “MIC Asp.fu.” value in the data set on Aspergillus fumigatus (20160 min, pH 6) is 1,56 μg/ml. Further, the “MIC C.alb” value with Candida albicans (pH 6.0, 22° C., 14 days) is 3,12 μg/ml. Besides, the “MIC Ep.flo” value against Epidermophyton floccosum is 0,78 μg/ml. In addition, the “MIC Mi.gyp” value against Microsporum gypseum (Microsporum gypseum, pH 6.0, 22° C., 14 days) is 0,39 μg/ml. In addition, in the data set with Mucor mucedo minus (Mucor mucedo minus), the “MIC Mu.mu-” value is 6,25 μg/ml. The “MIC Mu.mu+” value with Mucor mucedo plus (Mucor mucedo plus) is 6,25 μg/ml. Further, the “MIC Tri.me.” value in data set [1] is listed as 0,39 μg/ml. Further, the “MIC Tri.ru.” value in the data set with Trichophyton rubrum was 0,39 μg/ml. Besides, in the data set with Trichophyton verrucosum, the “MIC Tri.ve.” value is 0,30 μg/ml.

On to `Clc1ccc(SCCCNC(Cn2ccnc2)c2ccc(Cl)cc2Cl)cc1` (stereo not drawn) [Compound 2, 1-(2-(2,4-dichlorophenyl)-2-(3-(4-chlorophenylthio)propylamino)ethyl)-1H-imidazole], for which the minimal inhibitory concentration (MIC) with Absidia ramosa was determined as 3.12 mg/L (≈ 7.08 µM); in the data set with Candida albicans (setting [2]), 3.12 mg/L (≈ 7.08 µM); in the data set with Candida tropicalis (setting [3]) it was 1.56 mg/L (≈ 3.54 µM); against Epidermophyton floccosum, 6.25 mg/L (≈ 14.2 µM); against Microsporum canis, 1.56 mg/L (≈ 3.54 µM); in the data set on Microsporum gypseum (setting [4]) it was 3.12 mg/L (≈ 7.08 µM). Also, the MIC against Mucor mucedo minus worked out at 25 mg/L (≈ 56.7 µM); in the data set on Mucor mucedo plus, 12.5 mg/L; in data set [1], 12.5 mg/L (≈ 28.4 µM); against Trichophyton rubrum it was 0.19 mg/L (≈ 0.431 µM); against Trichophyton verrucosum, 0.39 mg/L (≈ 0.885 µM). For the same compound, in the data set on Aspergillus fumigatus (20160 min, pH 6), the “MIC Asp.fu.” value is recorded as 3,12 μg/ml.

On to `CN(CCCSCc1ccc(Cl)cc1)C(Cn1ccnc1)c1ccc(Cl)cc1Cl` (stereo not drawn) [Compound 3, 1-(2-(2,4-Dichlorophenyl)-2-(N-methyl-3-(4-chlorobenzylthio)propylamino)ethyl)-1H-imidazole], for which the MIC against Absidia ramosa amounted to 50 mg/L (≈ 107 µM); in the data set on Candida albicans (setting [2]) it was 3.12 mg/L (≈ 6.65 µM); with Candida tropicalis (setting [3]) it was 0.78 mg/L (≈ 1.66 µM); against Epidermophyton floccosum it was 1.56 mg/L (≈ 3.33 µM); against Microsporum canis, 1.56 mg/L (≈ 3.33 µM); in the data set on Microsporum gypseum (setting [4]) it was 6.25 mg/L (≈ 13.3 µM). For the same compound, the MIC against Mucor mucedo minus is 6.25 mg/L (≈ 13.3 µM); with Mucor mucedo plus, 6.25 mg/L; in data set [1], 6.25 mg/L (≈ 13.3 µM); with Trichophyton rubrum it was 6.25 mg/L (≈ 13.3 µM); in the data set with Trichophyton verrucosum, 6.25 mg/L (≈ 13.3 µM). The “MIC Asp.fu.” value against Aspergillus fumigatus (20160 min, pH 6) is given as 25,0 μg/ml.

For the compound `Clc1ccc(C(Cn2ccnc2)NCCSc2ccc3ccccc3c2)c(Cl)c1` (stereo not drawn) [Compound 40], the MIC is 12.5 mg/L (≈ 28.3 µM) against Absidia ramosa; 6.25 mg/L (≈ 14.1 µM) in the data set on Candida albicans (setting [2]); 3.12 mg/L (≈ 7.05 µM) in the data set with Microsporum gypseum (setting [4]); 25 mg/L (≈ 56.5 µM) against Mucor mucedo minus; 12.5 mg/L with Mucor mucedo plus; 6.25 mg/L (≈ 14.1 µM) in [1]. In addition, the minimal inhibitory concentration (MIC) in the data set with Trichophyton rubrum and against Trichophyton verrucosum was 3.12 mg/L (≈ 7.05 µM) each time. Also, the “MIC Ep.flo” value in the data set with Epidermophyton floccosum is 3,12 μg/ml and 6,25 μg/ml.

`COc1ccc(OCCCNC(Cn2ccnc2)c2ccc(Cl)cc2Cl)cc1` (stereo not drawn) [Compound 67]: in the data set on Absidia ramosa, the “MIC Abs.ra.” value is reported as 50,0 μg/ml. The minimum inhibitory concentration (MIC) came to 100 mg/L (≈ 238 µM) against Absidia ramosa; 50 mg/L (≈ 119 µM) with Candida tropicalis (setting [3]); 100 mg/L (≈ 238 µM) with Epidermophyton floccosum; 50 mg/L (≈ 119 µM) in the data set with Microsporum canis; 25 mg/L (≈ 59.5 µM) in the data set on Microsporum gypseum (setting [4]); 100 mg/L (≈ 238 µM) in data set [1]. In the data set with Trichophyton verrucosum, this compound had an MIC of 6.25 mg/L (≈ 14.9 µM). The “MIC Ep.flo” value against Epidermophyton floccosum is given as 50,0 μg/ml. Further, in the data set with Microsporum canis, the “MIC Mi.can” value is on record as 25,0 μg/ml. Also, the “MIC Tri.me.” value in data set [1] is 50,0 μg/ml.
